Here are results for three molecules from patent publication US10837969B2, “Therapeutic and diagnostic methods for autism spectrum disorders and other conditions” (THE JOHNS HOPKINS UNIVERSITY, priority 2012, dated 2020).

One series has as its target T1, AT-1 receptor (Homo sapiens, UniProt P30556).
T1 construct: found prominent expression of the receptor on the cell surface; endogenous in cells; host or cells: human fetal brain-derived neural stem/progenitor cells (NSC/NPC), 7-8 weeks gestation
T1 sequence (P30556 1-359): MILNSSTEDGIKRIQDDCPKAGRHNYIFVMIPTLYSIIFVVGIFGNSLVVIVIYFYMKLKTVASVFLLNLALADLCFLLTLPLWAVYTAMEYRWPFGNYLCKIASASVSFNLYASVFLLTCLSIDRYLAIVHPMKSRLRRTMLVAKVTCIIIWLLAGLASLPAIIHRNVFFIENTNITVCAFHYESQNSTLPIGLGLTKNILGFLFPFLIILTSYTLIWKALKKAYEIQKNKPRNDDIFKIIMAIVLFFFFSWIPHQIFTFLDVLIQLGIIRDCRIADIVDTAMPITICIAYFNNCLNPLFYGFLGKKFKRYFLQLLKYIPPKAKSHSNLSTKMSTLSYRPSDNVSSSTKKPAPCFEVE
Particulars: in vitro, IgG from pre-eclamptic patients; cited from earlier work.

Another series has as its system NSC. The experiment in a line: CellQuanti-Blue cytotoxicity assay. In kind it is cell-based. The following applies: higher concentrations, 10-100 uM. The protocol:
Cytotoxicity Assays. Cytotoxicity was determined by using CellQuanti-Blue Cell Viability Assay kit (BioAssay Systems) as previously published^24. Briefly, NSCs were cultured in poly-D-lysine coated 96-well plates and used for experiments at ˜60% confluence. […] After 24 hours, CellQuanti-Blue solution (10 μl/well) was added and the cells were incubated for 1 hour. The fluorescence was quantified at an excitation wavelength of 530 nm and emission wavelength of 590 nm using a fluorescence plate reader.
MCAD-IgG Inhibits NSC Proliferation. The effect of MCAD on NSC proliferation was studied by exposing cultured human NSC to corresponding concentrations (1:500 to 1:50) of MCAD or MUC antibodies for 24 hours in the presence of BrdU for the last 6 hours. The number of proliferating cells were determined by calculating the percentage of BrdU immunopositive cells. […] Another group of NSC similarly treated with the MCAD or MUC antibodies were also immunostained for active-caspase-3 to determine if MCAD-IgG could induce apoptosis in these cells. […] Cell toxicity was also evaluated using cellquanti-blue assay. To exclude the effect of cell proliferation, NSC cultures were treated with MCAD- or MUC-IgG in growth factor-free media for 24 hours before the cellquanti-blue solution was added. […] Thus MCAD-IgG inhibited NSC proliferation without causing cell death.

Series [1] relates to NSC treated with MCAD-IgG. Put plainly: Attenuation of MCAD-IgG effect on NSC differentiation (beta-III tubulin/GFAP immunostaining). In kind it is cell-based, human. The protocol:
Cell Proliferation and Differentiation Assays. Cell proliferation was assessed by BrdU incorporation. The cells were first treated with MCAD or control antibodies for 18 hours and then for 6 hours with BrdU (Sigma) followed by immunostaining for BrdU. When subjected to differentiation, media was replaced with DMEM/F12 containing 2% FBS. The NPC were capable of differentiating into neurons (40-60%) and astrocytes (20-50%) after 4-7 days. Immunocytochemistry. Cells were fixed in 4% (w/v) paraformaldehyde and permeabilized by incubation in 0.5% (v/v) Triton X-100 in PBS (PBS-T) for 20 min. For BrdU staining, the cells were also denatured in 2N HCl at 37° C. for 30 min and rinsed twice in 0.1 M sodium borate, pH 8.5. Cells were immunostained using monoclonal anti-BrdU (1:1000; Sigma-Aldrich), monoclonal anti-β-III-tubulin (1:1000; Promega), rabbit anti-GFAP (1:1000; Sigma-Aldrich), monoclonal anti-AT-1 (1:50; Abcam, Cambridge Mass.) or rabbit anti-active caspase-3 (1:1000; Sigma-Aldrich), followed by corresponding secondary antibodies (anti-rabbit Alexa Fluor 488, 1:400; anti-mouse Alexa Fluor […], 1:400; Invitrogen) and 4′,6-diamidino-2-phenylindole (DAPI) for nuclear staining. Images were acquired on a Zeiss LSM 510 META multiphoton confocal system (Carl Zeiss). […] Neurogenesis was determined after 4 days using immunostaining for beta-III tubulin and GFAP.

For another series, the system named is human NSC. The experiment in a line: NSC proliferation by BrdU incorporation. It is filed as cell-based. The following applies: preliminary in vitro study. The protocol:
Cell Cultures. Reagents for cell culture were purchased from Invitrogen (Carlsbad, Calif.) if not otherwise specified. Human NPC were cultured as published previously ^24 in accordance with NIH guidelines and following approval by the Institutional Review Board at Johns Hopkins University and the National Institutes of Health. Briefly, human fetal brain specimens of 7-8 weeks gestation were obtained from Birth Defects Research Laboratory, University of Washington, Seattle. The tissues were then triturated into single cells after removing meninges and blood vessels. […] NSC cultures were ready for experiments 4-5 days after replating and >98% of the cells expressed the neural stem cell marker, nestin while <1% of the cells expressed glial fibrillary acidic protein (GFAP, a marker for astrocytes) or beta-III tubulin (a neuronal cell marker) as determined by immunocytochemistry.
Cell Proliferation and Differentiation Assays. Cell proliferation was assessed by BrdU incorporation. […]
MCAD-IgG Inhibits NSC Proliferation. […] The number of proliferating cells were determined by calculating the percentage of BrdU immunopositive cells. […] Cell toxicity was also evaluated using cellquanti-blue assay. […]

On to `CCCCc1nc(Cl)c(CO)n1Cc1ccc(-c2ccccc2-c2nn[nH]n2)cc1` [losartan], for which the “blockade of patient IgG-induced constriction of villus veins and arteries” value at AT-1 receptor is recorded as “could be blocked”. Take `CCCc1nc2c(C)cc(-c3nc4ccccc4n3C)cc2n1Cc1ccc(-c2ccccc2C(=O)O)cc1` [Telmisartan]: the “toxicity in cells, cellquanti-blue” value with NSC was “caused toxicity in cells”. Also, the “effect on MCAD-IgG caused changes in neuronal and astroglial differentiation” value in series [1] (10 nM, pretreatment 30 min prior to IgG) is “significantly attenuated MCAD-IgG caused effect on neuronal and astroglial differentiation”.

For the molecule `Fc1ccc([C@@H]2CCNC[C@H]2COc2ccc3c(c2)OCO3)cc1` [Paroxetine, paroxetine], the “proliferation of NSC” value in the series on human NSC is on record as “increased proliferation of NSC in a concentration-dependent manner”. The “effect on MCAD-IgG caused inhibition of neurogenesis and enhanced astroglial differentiation” value in series [1] (20 nM-2 uM, 1 hour prior to MCAD-IgG (1:50), after 4 days) is “reversed MCAD-IgG caused inhibition of neurogenesis and enhanced astroglial differentiation”.
